Reference: ChEMBL document CHEMBL5338705, “Discovery of 1,3,4-oxadiazole derivatives containing a bisamide moiety as a novel class of potential cardioprotective agents” (Eur J Med Chem, 2022)
The source made the active and inactive calls. The rule behind the calls is not given here.

How the values were obtained:
[1] = tested on: H9c2; experiment: Cytoprotective activity against H2O2-induced oxidative damage in rat H9c2 cells assessed as cell viability at 20 uM preincubated for 24 hrs followed by H2O2 treatment for another 1.5 hrs by MTT assay (reference value: 32.52 to 44.40%); type: functional; conditions: time 25.5 hrs, read-out: Activity
[2] = tested on: H9c2; experiment: Cytoprotective activity against H2O2-induced oxidative damage in rat H9c2 cells assessed as fold reduction in cell viability at 20 uM preincubated for 24 hrs followed by H2O2 treatment for another 1.5 hrs by MTT assay; type: functional; conditions: time 25.5 hrs
[3] = tested on: H9c2; experiment: Cytotoxicity against rat H9c2 cells at 10 to 100 uM measured after 48 to 72 hrs by MTT assay; type: toxicity, cell-based; conditions: h9c2, 100 µM, dose lower 10 µM, time lower 48 hrs, dose upper 100 µM, time upper 72 hrs
[4] = tested on: H9c2; experiment: Cytoprotective activity against H2O2-induced oxidative damage in rat H9c2 cells assessed as cell viability preincubated for 24 hrs followed by H2O2 treatment for another 1.5 hrs by MTT assay; type: functional, cell-based; conditions: dose 0-80 µM, time 25.5 hrs
[5] = tested on: H9c2; experiment: Cytoprotective activity against H2O2-induced oxidative damage in rat H9c2 cells assessed as reduction in cell viability at 100 uM incubated for 24 hrs followed by low concentration of H2O2 treatment and measured after 24 hrs by MTT assay relative to control; type: functional; conditions: time 48 hrs
[6] = tested on: H9c2; experiment: Protection against H2O2-induced cell damage in rat H9c2 cells assessed as recovery of cell shrinkage at 100 uM; type: functional, cell-based
[7] = tested on: H9c2; experiment: Protection against H2O2-induced cell damage in rat H9c2 cells assessed as recovery of cell death at 100 uM; type: functional, cell-based
[8] = tested on: H9c2; experiment: Downregulation of H2O2 induced ANP level in rat H9c2 cells measured after 1.5 hrs by qRT-PCR analysis; type: functional, cell-based; conditions: dose <= 80.0 µM
[9] = tested on: H9c2; experiment: Downregulation of H2O2 induced BNP level in rat H9c2 cells measured after 1.5 hrs by qRT-PCR analysis; type: functional, cell-based; conditions: dose <= 80.0 µM
[10] = tested on: H9c2; experiment: Anti-apoptotic activity in H202 induced rat H9c2 cells assessed as decrease in Bcl2 level at 20 to 80 uM measured after 1.5 hrs by Western blot analysis; type: functional, cell-based; conditions: dose 20-80 µM
[11] = tested on: H9c2; experiment: Anti-apoptotic activity in H202 induced rat H9c2 cells assessed as increase in Bax level at 20 to 80 uM measured after 1.5 hrs by Western blot analysis; type: functional, cell-based; conditions: dose 20-80 µM
[12] = tested on: H9c2; experiment: Anti-apoptotic activity in H202 induced rat H9c2 cells assessed as increase in caspase 3 level at 20 to 80 uM measured after 1.5 hrs by Western blot analysis; type: functional, cell-based; conditions: dose 20-80 µM
[13] = tested on: H9c2; experiment: Anti-apoptotic activity in H202 induced rat H9c2 cells assessed as increase in caspase 9 level at 20 to 80 uM measured after 1.5 hrs by Western blot analysis; type: functional, cell-based; conditions: dose 20-80 µM
[14] = tested on: H9c2; experiment: Antioxidant activity in H2O2-induced oxidative stress in rat H9c2 cells assessed as increase in expression of Nrf2 level at upto 80 uM measured after 1.5 hrs by Western blotting analysis; type: functional, cell-based
[15] = tested on: H9c2; experiment: Antioxidant activity in H2O2-induced oxidative stress in rat H9c2 cells assessed as increase in expression of NQO1 level at upto 80 uM measured after 1.5 hrs by Western blotting analysis; type: functional, cell-based
[16] = tested on: H9c2; experiment: Downregulation of H2O2 induced ANP level in rat H9c2 cells at 80 uM measured after 1.5 hrs by qRT-PCR analysis; type: functional, cell-based
[17] = tested on: H9c2; experiment: Cytoprotective activity against H2O2-induced oxidative damage in rat H9c2 cells assessed as cell viability at 80 uM preincubated for 24 hrs followed by H2O2 treatment for another 1.5 hrs by MTT assay; type: functional, cell-based; conditions: time 25.5 hrs
[18] = tested on: H9c2; experiment: Downregulation of H2O2 induced BNP level in rat H9c2 cells at 80 uM measured after 1.5 hrs by qRT-PCR analysis; type: functional, cell-based
[19] = tested on: H9c2; experiment: Antioxidant activity in H2O2-induced oxidative stress in rat H9c2 cells assessed as increase in expression of Nrf2 level at 80 uM measured after 1.5 hrs by Western blotting analysis; type: functional, cell-based
[20] = tested on: H9c2; experiment: Antioxidant activity in H2O2-induced oxidative stress in rat H9c2 cells assessed as increase in expression of NQO1 level at 80 uM measured after 1.5 hrs by Western blotting analysis; type: functional, cell-based
[21] = tested on: H9c2; experiment: Anti-apoptotic activity in H202 induced rat H9c2 cells assessed as decrease in Bcl2 level at 80 uM measured after 1.5 hrs by Western blot analysis; type: functional, cell-based
[22] = tested on: H9c2; experiment: Anti-apoptotic activity in H202 induced rat H9c2 cells assessed as increase in Bax level at 80 uM measured after 1.5 hrs by Western blot analysis; type: functional, cell-based
[23] = tested on: H9c2; experiment: Anti-apoptotic activity in H202 induced rat H9c2 cells assessed as increase in caspase 3 level at 80 uM measured after 1.5 hrs by Western blot analysis; type: functional, cell-based
[24] = tested on: H9c2; experiment: Anti-apoptotic activity in H202 induced rat H9c2 cells assessed as increase in caspase 9 level at 80 uM measured after 1.5 hrs by Western blot analysis; type: functional, cell-based

COc1ccc(NC(=O)CSc2nnc(-c3ccccc3)o2)cc1
viability at 20 µM [1]: 52.6% | fold change (FC) [2]: 1.46

O=C(CSc1nnc(-c2cccnc2)o1)NC(=O)Nc1ccccn1
viability at 20 µM [1]: 40.5% | fold change (FC) [2]: 0.91

O=C(CSc1nnc(-c2ccccc2O)o1)NC(=O)Nc1ccccc1
viability at 20 µM [1]: 60.7% | fold change (FC) [2]: 1.45

COc1ccc(NC(=O)NC(=O)CSc2nnc(-c3ccc(O)cc3)o2)cc1
viability at 20 µM [1]: 60.5% | fold change (FC) [2]: 1.68

O=C(CSc1nnc(-c2ccc(O)cc2)o1)NC(=O)NN1CCOCC1
viability at 20 µM [1]: 44.2% | fold change (FC) [2]: 1.12

O=C(CSc1nnc(-c2ccccc2)o1)NC(=O)Nc1cccc(Cl)c1
viability at 20 µM [1]: 34% | fold change (FC) [2]: 1.03

Cc1cccc(-c2nnc(SCC(=O)NC(=O)Nc3ccccc3)o2)c1
viability at 20 µM [1]: 46.7% | fold change (FC) [2]: 1.11

Cc1cccc(-c2nnc(SCC(=O)NC(=O)Nc3ccccn3)o2)c1
viability at 20 µM [1]: 53.5% | fold change (FC) [2]: 1.21

COc1ccc(NC(=O)NC(=O)Cn2cc(CSc3nnc(-c4ccccc4)o3)nn2)cc1
viability at 20 µM [1]: 18.4% | fold change (FC) [2]: 0.51

O=C(CSc1nnc(-c2ccccc2Cl)o1)NC(=O)Nc1ccccn1
viability at 20 µM [1]: 42.6% | fold change (FC) [2]: 0.96

COc1ccc(NC(=O)NC(=O)CSc2nnc(-c3ccccc3)[nH]2)cc1
viability at 20 µM [1]: 64.4% | fold change (FC) [2]: 1.69

Cc1ccc(NC(=O)NC(=O)CSc2nnc(-c3ccccc3)o2)cc1
viability at 20 µM [1]: 54.8% | fold change (FC) [2]: 1.67

COc1ccc(NC(=O)CSc2nnc(-c3ccc(O)cc3)o2)cc1
viability at 20 µM [1]: 42.9% | fold change (FC) [2]: 1

O=C(CSc1nnc(-c2cccc(Cl)c2)o1)NC(=O)Nc1ccccc1
viability at 20 µM [1]: 42.5% | fold change (FC) [2]: 1.01

O=C(CSc1nnc(-c2ccc(O)cc2)o1)NC(=O)Nc1ccccn1
viability at 20 µM [1]: 85.2% | fold change (FC) [2]: 1.92

O=C(CSc1nnc(-c2ccccc2)o1)NC(=O)Nc1ccccc1Cl
viability at 20 µM [1]: 34.5% | fold change (FC) [2]: 1.05

O=C(CSc1nnc(-c2ccc(Cl)cc2)o1)NC(=O)Nc1ccccn1
viability at 20 µM [1]: 54.9% | fold change (FC) [2]: 1.24

CC(C)c1ccc(NC(=O)NC(=O)CSc2nnc(-c3ccccc3)o2)cc1
viability at 20 µM [1]: 38.9% | fold change (FC) [2]: 1.18

O=C(CSc1nnc(-c2ccncc2)o1)NC(=O)Nc1ccccc1
viability at 20 µM [1]: 48.5% | fold change (FC) [2]: 1.16

COCCCNC(=O)NC(=O)CSc1nnc(-c2ccc(O)cc2)o1
viability at 20 µM [1]: 69.5% | fold change (FC) [2]: 1.76

O=C(CSc1nnc(-c2ccc(O)cc2)o1)Nc1ccccn1
viability at 20 µM [1]: 55.3% | fold change (FC) [2]: 1.54

COc1ccccc1NC(=O)NC(=O)CSc1nnc(-c2ccccc2)o1
viability at 20 µM [1]: 47% | fold change (FC) [2]: 1.43

O=C(CSc1nnc(-c2ccc(O)cc2)o1)NC(=O)Nc1nccs1
viability at 20 µM [1]: 36.8% | fold change (FC) [2]: 0.93

Cc1ccccc1-c1nnc(SCC(=O)NC(=O)Nc2ccccc2)o1
viability at 20 µM [1]: 56% | fold change (FC) [2]: 1.34

O=C(CSc1nnc(-c2cccc(Cl)c2)o1)NC(=O)Nc1ccccn1
viability at 20 µM [1]: 48.4% | fold change (FC) [2]: 1.09

O=C(CSc1nnc(-c2ccccc2)o1)NC(=O)Nc1ccc(Cl)cc1
viability at 20 µM [1]: 37.6% | fold change (FC) [2]: 1.14

O=C(CSc1nnc(-c2ccccn2)o1)NC(=O)Nc1ccccc1
viability at 20 µM [1]: 35.5% | fold change (FC) [2]: 0.85

O=C(CSc1nnc(-c2ccncc2)o1)NC(=O)Nc1ccccn1
viability at 20 µM [1]: 45.3% | fold change (FC) [2]: 1.02

O=C(CSc1nnc(-c2ccccc2)o1)NC(=O)Nc1ccccn1
viability at 20 µM [1]: 72.5% | fold change (FC) [2]: 1.79

O=C(CSc1nnc(-c2ccc(O)cc2)o1)NC(=O)Nc1ccccc1
viability at 20 µM [1]: 71.7% | fold change (FC) [2]: 1.71

Cc1ccccc1-c1nnc(SCC(=O)NC(=O)Nc2ccccn2)o1
viability at 20 µM [1]: 66.5% | fold change (FC) [2]: 1.5

Cc1ccc(-c2nnc(SCC(=O)NC(=O)Nc3ccccn3)o2)cc1
viability at 20 µM [1]: 70.9% | fold change (FC) [2]: 1.6

O=C(CSc1nnc(-c2ccc(Cl)cc2)o1)NC(=O)Nc1ccccc1
viability at 20 µM [1]: 51.5% | fold change (FC) [2]: 1.23

O=C(CSc1nnc(-c2ccccc2O)o1)NC(=O)Nc1ccccn1
viability at 20 µM [1]: 65.7% | fold change (FC) [2]: 1.48

O=C(CSc1nnc(-c2ccccc2)o1)Nc1ccccc1
viability at 20 µM [1]: 46.6% | fold change (FC) [2]: 1.09

O=C(CSc1nnc(-c2ccccn2)o1)NC(=O)Nc1ccccn1
viability at 20 µM [1]: 54% | fold change (FC) [2]: 1.22

O=C(CSc1nnc(-c2ccccc2)o1)NC(=O)Nc1ccccc1
viability at 20 µM [1]: 52.9% | fold change (FC) [2]: 1.32

COc1cc(NC(=O)NC(=O)CSc2nnc(-c3ccccc3)o2)cc(OC)c1OC
viability at 20 µM [1]: 43% | fold change (FC) [2]: 1.3

Cc1ccc(-c2nnc(SCC(=O)NC(=O)Nc3ccccc3)o2)cc1
viability at 20 µM [1]: 57.7% | fold change (FC) [2]: 1.38

O=C(CSC(=S)N1CCNCC1)NC(=O)Nc1ccccc1
viability at 20 µM [1]: 41.1% | fold change (FC) [2]: 1.03

O=C(CSc1nnc(-c2ccc(O)cc2)o1)NC(=O)Nc1cccnc1
viability at 20 µM [1]: 64.8% | fold change (FC) [2]: 1.64

O=C(CSc1nnc(-c2ccc(O)cc2)o1)NC(=O)Nc1ncccn1
viability at 20 µM [1]: 59.1% | fold change (FC) [2]: 1.49

O=C(CSc1nnc(-c2ccc(O)cc2)o1)NC(=O)NN1CCCCC1
viability at 20 µM [1]: 29.2% | fold change (FC) [2]: 0.74

COc1ccc(NC(=O)NC(=O)CSc2nnc(-c3ccccc3)o2)cc1
viability at 20 µM [1]: 88.4% | fold change (FC) [2]: 2.69 | Activity [3]: Non-Toxic | Activity [4]: Dose-Dependent Effect | Activity [5]: 48% | Activity [6]: Active | Activity [7]: Active | Activity [8]: Dose-Dependent Effect | Activity [9]: Dose-Dependent Effect | Activity [10]: Active | Activity [11]: Active | Activity [12]: Active | Activity [13]: Active | Activity [14]: Active | Activity [15]: Active

O=C(CSc1nnc(-c2cccnc2)o1)NC(=O)Nc1ccccc1
viability at 20 µM [1]: 39.2% | fold change (FC) [2]: 0.93

O=C(CSc1nnc(-c2ccccc2Cl)o1)NC(=O)Nc1ccccc1
viability at 20 µM [1]: 40.9% | fold change (FC) [2]: 0.98

O=C(Cn1cc(CSc2nnc(-c3ccc(O)cc3)o2)nn1)NC(=O)Nc1ccccn1
viability at 20 µM [1]: 18.7% | fold change (FC) [2]: 0.52

COc1cccc(NC(=O)NC(=O)CSc2nnc(-c3ccccc3)o2)c1
Activity [16]: inactive | viability at 20 µM [1]: 22.6% | fold change (FC) [2]: 0.69 | Activity [17]: inactive | Activity [6]: inactive | Activity [7]: inactive | Activity [18]: inactive | Activity [19]: inactive | Activity [20]: inactive | Activity [21]: inactive | Activity [22]: inactive | Activity [23]: inactive | Activity [24]: inactive

O=C(CSc1nnc(-c2ccccc2)o1)Nc1ccccn1
viability at 20 µM [1]: 41.4% | fold change (FC) [2]: 0.97
